Experimental data published in ChEMBL document CHEMBL2440076, “New triarylpyrazoles as broad-spectrum anticancer agents: design, synthesis, and biological evaluation” (Eur J Med Chem, 2013).

Experiments:
[1] = Growth inhibition of human Hs 578T cells assessed as cell growth at 10 uM after 48 hrs by sulforhodamine B assay; format: functional; settings: read-out: Activity
DU-145 [2] = assay: Growth inhibition of human DU145 cells assessed as cell growth at 10 uM after 48 hrs by sulforhodamine B assay; format: functional; settings: DU-145, 48 h, read-out: Activity
TK-10 = assay: Growth inhibition of human TK10 cells assessed as cell growth at 10 uM after 48 hrs by sulforhodamine B assay; format: functional; settings: TK-10, 48 h, read-out: Activity
HT-29 [3] = assay: Growth inhibition of human HT-29 cells after 48 hrs by sulforhodamine B assay; format: functional; settings: HT-29, 48 h
HCT-116 = assay: Growth inhibition of human HCT116 cells after 48 hrs by sulforhodamine B assay; format: functional; settings: HCT-116, 48 h
HCT-15 [4] = assay: Growth inhibition of human HCT15 cells after 48 hrs by sulforhodamine B assay; format: functional; settings: HCT-15, 48 h
NCI-H322M = assay: Growth inhibition of human NCI-H322M cells after 48 hrs by sulforhodamine B assay; format: functional
A549 [5] = assay: Growth inhibition of human A549/ATCC cells after 48 hrs by sulforhodamine B assay; format: functional; settings: A549, 48 h
ACHN = assay: Growth inhibition of human ACHN cells assessed as cell growth at 10 uM after 48 hrs by sulforhodamine B assay; format: functional; settings: read-out: Activity
786-0 = assay: Growth inhibition of human 786-0 cells assessed as cell growth at 10 uM after 48 hrs by sulforhodamine B assay; format: functional; settings: 786-0, 48 h, read-out: Activity
OVCAR-4 = assay: Growth inhibition of human OVCAR4 cells assessed as cell growth at 10 uM after 48 hrs by sulforhodamine B assay; format: functional; settings: OVCAR-4, 48 h, read-out: Activity
OVCAR-3 = assay: Growth inhibition of human OVCAR3 cells assessed as cell growth at 10 uM after 48 hrs by sulforhodamine B assay; format: functional; settings: OVCAR-3, 48 h, read-out: Activity
SK-MEL-2 = assay: Growth inhibition of human SK-MEL-2 cells assessed as cell growth at 10 uM after 48 hrs by sulforhodamine B assay; format: functional; settings: SK-MEL-2, 48 h, read-out: Activity
SK-MEL-28 = assay: Growth inhibition of human SK-MEL-28 cells assessed as cell growth at 10 uM after 48 hrs by sulforhodamine B assay; format: functional; settings: SK-MEL-28, 48 h, read-out: Activity
M14 [6] = assay: Growth inhibition of human M14 cells assessed as cell growth at 10 uM after 48 hrs by sulforhodamine B assay; format: functional; settings: M14, 48 h, read-out: Activity
SNB-19 [7] = assay: Growth inhibition of human SNB19 cells assessed as cell growth at 10 uM after 48 hrs by sulforhodamine B assay; format: functional; settings: SNB-19, 48 h, read-out: Activity
SW-620 = assay: Growth inhibition of human SW620 cells assessed as cell growth at 10 uM after 48 hrs by sulforhodamine B assay; format: functional; settings: SW-620, 48 h, read-out: Activity
HT-29 [8] = assay: Growth inhibition of human HT-29 cells assessed as cell growth at 10 uM after 48 hrs by sulforhodamine B assay; format: functional; settings: HT-29, 48 h, read-out: Activity
KM12 = assay: Growth inhibition of human KM12 cells assessed as cell growth at 10 uM after 48 hrs by sulforhodamine B assay; format: functional; settings: KM12, 48 h, read-out: Activity
HCT-15 [9] = assay: Growth inhibition of human HCT15 cells assessed as cell growth at 10 uM after 48 hrs by sulforhodamine B assay; format: functional; settings: HCT-15, 48 h, read-out: Activity
[10] = Growth inhibition of human HCC2998 cells assessed as cell growth at 10 uM after 48 hrs by sulforhodamine B assay; format: functional; settings: HCC 2998, 48 h, read-out: Activity
[11] = Growth inhibition of human Hs 578T cells after 48 hrs by sulforhodamine B assay; format: functional
DU-145 [12] = assay: Growth inhibition of human DU145 cells after 48 hrs by sulforhodamine B assay; format: functional; settings: DU-145, 48 h
PC-3 = assay: Growth inhibition of human PC3 cells after 48 hrs by sulforhodamine B assay; format: functional, cell-based; settings: PC-3, 48 h
RXF 393 = assay: Growth inhibition of human RXF393 cells after 48 hrs by sulforhodamine B assay; format: functional; settings: RXF 393, 48 h
SN12C = assay: Growth inhibition of human SN12C cells after 48 hrs by sulforhodamine B assay; format: functional
A498 = assay: Growth inhibition of human A498 cells after 48 hrs by sulforhodamine B assay; format: functional, cell-based; settings: A498, 48 h
[13] = Growth inhibition of human NCI-ADR-RES cells after 48 hrs by sulforhodamine B assay; format: functional
UACC-257 = assay: Growth inhibition of human UACC257 cells after 48 hrs by sulforhodamine B assay; format: functional; settings: UACC-257, 48 h
MDA-MB-435 = assay: Growth inhibition of human MDA-MB-435 cells after 48 hrs by sulforhodamine B assay; format: functional, cell-based; settings: MDA-MB-435, 48 h
M14 [14] = assay: Growth inhibition of human M14 cells after 48 hrs by sulforhodamine B assay; format: functional; settings: M14, 48 h
SNB-75 = assay: Growth inhibition of human SNB75 cells after 48 hrs by sulforhodamine B assay; format: functional; settings: SNB-75, 48 h
U-251 = assay: Growth inhibition of human U251 cells after 48 hrs by sulforhodamine B assay; format: functional; settings: U-251, 48 h
SNB-19 [15] = assay: Growth inhibition of human SNB19 cells after 48 hrs by sulforhodamine B assay; format: functional; settings: SNB-19, 48 h
A549 [16] = assay: Growth inhibition of human A549/ATCC cells assessed as cell growth at 10 uM after 48 hrs by sulforhodamine B assay; format: functional; settings: A549, 48 h, read-out: Activity
[17] = read-out: LC50 (the source's name)

Compound: O=C(Nc1cccc(-n2cc(-c3ccncc3)c(-c3ccc(Cl)c(O)c3)n2)c1)Nc1cccc(C(F)(F)F)c1
- growth at 10 µM [1]: 29.4%
- growth at 10 µM (DU-145 [2]): 23.1%
- growth at 10 µM (TK-10): 21.9%
- GI50 (HT-29 [3]): 9.82 µM
- TGI (HT-29 [3]): > 32.5 µM
- CC50 (HT-29 [3]; [17]): > 32.5 µM
- GI50 (HCT-116): 1.39 µM
- TGI (HCT-116): 8.26 µM
- CC50 (HCT-116; [17]): > 32.5 µM
- GI50 (HCT-15 [4]): 1.51 µM
- LC50 (HCT-15 [4]): > 32.5 µM
- TGI (HCT-15 [4]): > 32.5 µM
- GI50 (NCI-H322M): 6.41 µM
- TGI (NCI-H322M): > 32.5 µM
- CC50 (NCI-H322M; [17]): > 32.5 µM
- GI50 (A549 [5]): 1.37 µM
- LC50 (concentration killing 50% of starting cells) (A549 [5]): > 32.5 µM
- TGI (A549 [5]): > 32.5 µM
- growth at 10 µM (ACHN): 11.2%
- growth at 10 µM (786-0): 34.4%
- growth at 10 µM (OVCAR-4): 41.5%
- growth at 10 µM (OVCAR-3): 0.81%
- growth at 10 µM (SK-MEL-2): -25.6%
- growth at 10 µM (SK-MEL-28): 29.4%
- growth at 10 µM (M14 [6]): 16.6%
- growth at 10 µM (SNB-19 [7]): 32.5%
- growth at 10 µM (SW-620): 28.5%
- growth at 10 µM (HT-29 [8]): 77.8%
- growth at 10 µM (KM12): 2.46%
- growth at 10 µM (HCT-15 [9]): 18.2%
- growth at 10 µM [10]: 40.1%
- GI50 [11]: 3.31 µM
- TGI [11]: > 32.5 µM
- CC50 [11, 17]: > 32.5 µM
- GI50 (DU-145 [12]): 1.76 µM
- LC50 (DU-145 [12]): > 32.5 µM
- TGI (DU-145 [12]): > 32.5 µM
- GI50 (PC-3): 0.948 µM
- IC50 (PC-3): 0.95 µM
- TGI (PC-3): 22.5 µM
- CC50 (PC-3; [17]): > 32.5 µM
- GI50 (RXF 393): 3.02 µM
- LC50 (concentration killing 50% of cells) (RXF 393): > 32.5 µM
- TGI (RXF 393): 12 µM
- GI50 (SN12C): 2.01 µM
- TGI (SN12C): > 32.5 µM
- CC50 (SN12C; [17]): > 32.5 µM
- GI50 (A498): 2.24 µM
- IC50 (A498): 2.24 µM
- TGI (A498): > 32.5 µM
- CC50 (A498; [17]): > 32.5 µM
- GI50 [13]: 2.14 µM
- TGI [13]: > 32.5 µM
- CC50 [13, 17]: > 32.5 µM
- GI50 (UACC-257): 4.34 µM
- TGI (UACC-257): 19.1 µM
- CC50 (UACC-257; [17]): > 32.5 µM
- GI50 (MDA-MB-435): 1.49 µM
- IC50 (MDA-MB-435): 1.49 µM
- TGI (MDA-MB-435): 12.6 µM
- CC50 (MDA-MB-435; [17]): > 32.5 µM
- GI50 (M14 [14]): 1.4 µM
- LC50 (concentration killing 50% of cells) (M14 [14]): > 32.5 µM
- TGI (M14 [14]): 10.8 µM
- GI50 (SNB-75): 3.65 µM
- LC50 (lethal concentration, 50% net cell kill) (SNB-75): > 32.5 µM
- TGI (SNB-75): > 32.5 µM
- GI50 (U-251): 1.59 µM
- LC50 (concentration killing 50% of cells) (U-251): > 32.5 µM
- TGI (U-251): 7.65 µM
- GI50 (SNB-19 [15]): 1.91 µM
- LC50 (concentration killing 50% of cells) (SNB-19 [15]): > 32.5 µM
- TGI (SNB-19 [15]): > 32.5 µM
- growth at 10 µM (A549 [16]): 5.74%
